Patent US20230416237A1, “AMIDE COMPOUND, PHARMACEUTICAL COMPOSITION AND USE THEREOF” (SHENZHEN BO LI JIAN MEDICINE CO., LTD., priority 2020, published 2023)

Assays:
JAK2 = JAK2 (Homo sapiens (Human), UniProt O60674); assay: JAK2 inhibitory activity, mobility shift assay, 1 mM ATP; assay type: biochemical; conditions: Table 7
Protocol: (§1) The JAK1 inhibitory activity and the JAK2 inhibitory activity of the amide compounds provided in the above examples were tested by the method below.
(§2) Specific steps are described below. • 1. A 1× Kinase buffer was formulated. • 2. Concentration gradients of the compound were formulated: a test compound with an initial concentration of 10000 nM (JAK1) or 30000 nM (JAK2) was diluted in a 384-well plate to a 100% DMSO solution with a 100-fold final concentration, wherein the compound was diluted by a fold of 3 to 10 concentrations. 250 nL of the compound with the 100-fold final concentration was transferred with a dispenser Echo 550 to the target plate. • 3. A kinase solution with a 2.5-fold final concentration was prepared with the 1× Kinase buffer. • 4. […] The plate was centrifuged at 1000 rpm for 30 s, shaken and uniformly mixed, and incubated for 10 min at room temperature. • 6. A mixed solution of ATP (the final concentration of ATP=1 mM) and Kinase substrate with a 5/3-fold final concentration was formulated with the 1× Kinase buffer. • 7. 15 μL of the mixed solution of ATP and the substrate with the 5/3-fold final concentration was added to initiate the reaction. • 8. The 384-well plate was centrifuged at 1000 rpm for 30 s, shaken and uniformly mixed, and incubated for respective times at room temperature. • 9. The kinase reaction was stopped by adding 30 μL of a detection termination solution, and the plate was centrifuged at 1000 rpm for 30 s and shaken and uniformly mixed. • 10. The conversion rate was read with Caliper EZ Reader and the half maximal inhibitory concentration (IC50) was calculated.

JAK1 = JAK1 (Homo sapiens (Human), UniProt P23458); assay: JAK1 inhibitory activity, mobility shift assay, 1 mM ATP; assay type: biochemical; conditions: 1 mM ATP; Table 7
Chain of JAK1 (P23458 850-1154): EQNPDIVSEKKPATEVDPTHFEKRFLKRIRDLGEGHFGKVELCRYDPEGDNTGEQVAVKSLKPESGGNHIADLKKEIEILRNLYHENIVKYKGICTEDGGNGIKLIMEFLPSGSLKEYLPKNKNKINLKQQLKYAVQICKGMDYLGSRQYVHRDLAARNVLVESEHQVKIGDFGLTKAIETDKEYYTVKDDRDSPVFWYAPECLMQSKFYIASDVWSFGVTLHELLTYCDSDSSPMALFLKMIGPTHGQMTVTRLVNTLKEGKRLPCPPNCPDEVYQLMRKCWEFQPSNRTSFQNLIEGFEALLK
Protocol: as §1, §2

Chain of JAK2 (O60674 826-1132): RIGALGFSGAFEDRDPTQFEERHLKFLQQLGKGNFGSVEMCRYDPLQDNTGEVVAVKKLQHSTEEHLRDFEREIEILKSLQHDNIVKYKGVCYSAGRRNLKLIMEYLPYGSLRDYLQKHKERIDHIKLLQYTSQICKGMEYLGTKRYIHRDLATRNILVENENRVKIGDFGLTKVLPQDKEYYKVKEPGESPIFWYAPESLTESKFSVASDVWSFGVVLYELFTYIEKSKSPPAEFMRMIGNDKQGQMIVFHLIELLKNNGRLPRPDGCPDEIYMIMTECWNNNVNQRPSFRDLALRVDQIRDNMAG

Compound	IC50 (JAK2) [nM]	IC50 (JAK1) [nM]
COc1nn(C)cc1Nc1ncc(F)c(-c2c[nH]c3c(NC(=O)[C@H]4CCCN4[C@H]4CCN(C)C4)cccc23)n1 [Example 25, (2R,3′S)-N-(3-(5-fluoro-2-((3-methoxy-1-methyl-1H-pyrazol-4-yl)amino)pyrimidin-4-yl)-1H-indol-7-yl)-1′-methyl-[1,3′-bipyrrolidine]-2-carboxamide]	12400	68
COc1nn(C)cc1Nc1ncc(C)c(-c2c[nH]c3c(NC(=O)[C@H]4CCCN4C4CCN(C)CC4)cccc23)n1 [Example 11, (R)-N-(3-(2-((3-methoxy-1-methyl-1H-pyrazol-4-yl)amino)-5-methylpyrimidin-4-yl)-1H-indol-7-yl)-1-(1-methylpiperidin-4-yl)pyrrolidine-2-carboxamide]	12100	69
COc1nn(C)cc1Nc1ncc(F)c(-c2c[nH]c3c(NC(=O)[C@H]4C[C@H](OC)CN4C4CCNCC4)cccc23)n1 [Example 9, (2R,4S)-N-(3-(5-fluoro-2-((3-methoxy-1-methyl-1H-pyrazol-4-yl)amino)pyrimidin-4-yl)-1H-indol-7-yl)-4-methoxy-1-(piperidin-4-yl)pyrrolidine-2-carboxamide]	5000	51
COc1nn(C)cc1Nc1ncc(F)c(-c2c[nH]c3c(NC(=O)[C@H]4CCCN4[C@@H]4CCNC4)cccc23)n1 [Example 22, (2R,3′R)-N-(3-(5-fluoro-2-((3-methoxy-1-methyl-1H-pyrazol-4-yl)amino)pyrimidin-4-yl)-1H-indol-7-yl)-[1,3′-bipyrrolidine]-2-carboxamide]	7280	46
COc1nn(C)cc1Nc1ncc(F)c(-c2c[nH]c3c(NC(=O)[C@H]4C[C@H](F)CN4C4CCNCC4)cccc23)n1 [Example 6, (2R,4S)-4-fluoro-N-(3-(5-fluoro-2-((3-methoxy-1-methyl-1H-pyrazol-4-yl)amino)pyrimidin-4-yl)-1H-indol-7-yl)-1-(piperidin-4-yl)pyrrolidine-2-carboxamide]	4000	68
COc1nn(C)cc1Nc1ncc(C)c(-c2c[nH]c3c(NC(=O)[C@H]4CCCN4[C@H]4CCN(C)C4)cccc23)n1 [Example 29, (2R,3′S)-N-(3-(2-((3-methoxy-1-methyl-1H-pyrazol-4-yl)amino)-5-methylpyrimidin-4-yl)-1H-indol-7-yl)-1′-methyl-[1,3′-bipyrrolidine]-2-carboxamide]	13400	67
COc1nn(C)cc1Nc1ncc(C)c(-c2c[nH]c3c(NC(=O)[C@H]4CC(F)(F)CN4[C@H]4CCN(C)C4)cccc23)n1 [Example 33, (2R,3′S)-4,4-difluoro-N-(3-(2-((3-methoxy-1-methyl-1H-pyrazol-4-yl)amino)-5-methylpyrimidin-4-yl)-1H-indol-7-yl)-1′-methyl-[1,3′-bipyrrolidine]-2-carboxamide]	3430	39
COc1nn(C)cc1Nc1ncc(F)c(-c2c[nH]c3c(NC(=O)[C@H]4CCCN4C4CCN(C)CC4)cccc23)n1 [Example 10, (R)-N-(3-(5-fluoro-2-((3-methoxy-1-methyl-1H-pyrazol-4-yl)amino)pyrimidin-4-yl)-1H-indol-7-yl)-1-(1-methylpiperidin-4-yl)pyrrolidine-2-carboxamide]	14600	104
CCO[C@H]1C[C@H](C(=O)Nc2cccc3c(-c4nc(Nc5cn(C)nc5OC)ncc4C)c[nH]c23)N(C2CCN(C)CC2)C1 [Example 12, (2R,4S)-4-ethoxy-N-(3-(2-((3-methoxy-1-methyl-1H-pyrazol-4-yl)amino)-5-methylpyrimidin-4-yl)-1H-indol-7-yl)-1-(1-methylpiperidin-4-yl)pyrrolidine-2-carboxamide]	12000	103
COc1nn(C)cc1Nc1ncc(F)c(-c2c[nH]c3c(NC(=O)[C@H]4CC(F)(F)CN4[C@@H]4CCN(C)C4)cccc23)n1 [Example 26, (2R,3′R)-4,4-difluoro-N-(3-(5-fluoro-2-((3-methoxy-1-methyl-1H-pyrazol-4-yl)amino)pyrimidin-4-yl)-1H-indol-7-yl)-1′-methyl-[1,3′-bipyrrolidine]-2-carboxamide]	5490	48
COc1nn(C)cc1Nc1ncc(C)c(-c2c[nH]c3c(NC(=O)[C@H]4CC(F)(F)CN4C4CCN(C)CC4)cccc23)n1 [Example 16, (R)-4,4-difluoro-N-(3-(2-((3-methoxy-1-methyl-1H-pyrazol-4-yl)amino)-5-methylpyrimidin-4-yl)-1H-indol-7-yl)-1-(1-methylpiperidin-4-yl)pyrrolidine-2-carboxamide]	3340	40
COc1nn(C)cc1Nc1ncc(C)c(-c2c[nH]c3c(NC(=O)[C@H]4C[C@H](F)CN4C4CCN(C)CC4)cccc23)n1 [Example 14, (2R,4S)-4-fluoro-N-(3-(2-((3-methoxy-1-methyl-1H-pyrazol-4-yl)amino)-5-methylpyrimidin-4-yl)-1H-indol-7-yl)-1-(1-methylpiperidin-4-yl)pyrrolidine-2-carboxamide]	6620	41
COc1nn(C)cc1Nc1nccc(-c2c[nH]c3c(NC(=O)[C@H]4C[C@H](F)CN4C4CCN(C)CC4)cccc23)n1 [Example 40, (2R,4S)-4-fluoro-N-(3-(2-((3-methoxy-1-methyl-1H-pyrazol-4-yl)amino)pyrimidin-4-yl)-1H-indol-7-yl)-1-(1-methylpiperidin-4-yl)pyrrolidine-2-carboxamide]	24300	259
COc1nn(C)cc1Nc1ncc(F)c(-c2c[nH]c3c(NC(=O)[C@H]4C[C@@H](F)CN4C4CCNCC4)cccc23)n1 [Example 7, (2R,4R)-4-fluoro-N-(3-(5-fluoro-2-((3-methoxy-1-methyl-1H-pyrazol-4-yl)amino)pyrimidin-4-yl)-1H-indol-7-yl)-1-(piperidin-4-yl)pyrrolidine-2-carboxamide]	4410	152
COc1nn(C)cc1Nc1nccc(-c2c[nH]c3c(NC(=O)[C@H]4CC(F)(F)CN4C4CCN(C)CC4)cccc23)n1 [Example 17, (R)-4,4-difluoro-N-(3-(2-((3-methoxy-1-methyl-1H-pyrazol-4-yl)amino)pyrimidin-4-yl)-1H-indol-7-yl)-1-(1-methylpiperidin-4-yl)pyrrolidine-2-carboxamide]	10500	216
COc1nn(C)cc1Nc1ncc(F)c(-c2c[nH]c3c(NC(=O)[C@@H]4CCCN4S(C)(=O)=O)cccc23)n1 [Example 1, (S)—N-(3-(5-fluoro-2-((3-methoxy-1-methyl-1H-pyrazol-4-yl)amino)pyrimidin-4-yl)-1H-indol-7-yl)-1-(methanesulfonyl)pyrrolidine-2-carboxamide]	2820	73
COc1nn(C)cc1Nc1ncc(Cl)c(-c2c[nH]c3c(NC(=O)[C@H]4CCCN4C4CCN(C)CC4)cccc23)n1 [Example 15, (R)-N-(3-(5-chloro-2-((3-methoxy-1-methyl-1H-pyrazol-4-yl)amino)pyrimidin-4-yl)-1H-indol-7-yl)-1-(1-methylpiperidin-4-yl)pyrrolidine-2-carboxamide]	3640	27
COc1nn(C)cc1Nc1ncc(F)c(-c2c[nH]c3c(NC(=O)[C@H]4C[C@H](F)CN4[C@H]4CCN(C)C4)cccc23)n1 [Example 39, (2R,3′S,4S)-4-fluoro-N-(3-(5-fluoro-2-((3-methoxy-1-methyl-1H-pyrazol-4-yl)amino)pyrimidin-4-yl)-1H-indol-7-yl)-1′-methyl-[1,3′-bipyrrolidine]-2-carboxamide]	4850	50
COc1nn(C)cc1Nc1ncc(C)c(-c2c[nH]c3c(NC(=O)[C@H]4CC(F)(F)CN4[C@H]4CCOC4)cccc23)n1 [Example 35, (R)-4,4-difluoro-N-(3-(2-((3-methoxy-1-methyl-1H-pyrazol-4-yl)amino)-5-methylpyrimidin-4-yl)-1H-indol-7-yl)-1-((S)-tetrahydrofuran-3-yl)pyrrolidine-2-carboxamide]	1890	115
COc1nn(C)cc1Nc1ncc(F)c(-c2c[nH]c3c(NC(=O)[C@H]4C[C@@H](OC)CN4C4CCNCC4)cccc23)n1 [Example 8, (2R,4R)-N-(3-(5-fluoro-2-((3-methoxy-1-methyl-1H-pyrazol-4-yl)amino)pyrimidin-4-yl)-1H-indol-7-yl)-4-methoxy-1-(piperidin-4-yl)pyrrolidine-2-carboxamide]	10500	1170
COc1nn(C)cc1Nc1ncc(F)c(-c2c[nH]c3c(NC(=O)[C@H]4CCCN4C4CCNCC4)cccc23)n1 [Example 5, (R)—N-(3-(5-fluoro-2-((3-methoxy-1-methyl-1H-pyrazol-4-yl)amino)pyrimidin-4-yl)-1H-indol-7-yl)-1-(piperidin-4-yl)pyrrolidine-2-carboxamide]	4300	55
COc1nn(C)cc1Nc1ncc(C)c(-c2c[nH]c3c(NC(=O)[C@H]4C[C@H](F)CN4[C@H]4CCN(C)C4)cccc23)n1 [Example 31, (2R,3′S,4S)-4-fluoro-N-(3-(2-((3-methoxy-1-methyl-1H-pyrazol-4-yl)amino)-5-methylpyrimidin-4-yl)-1H-indol-7-yl)-1′-methyl-[1,3′-bipyrrolidine]-2-carboxamide]	11900	92
